Experimental data published in PubChem BioAssay AID256 (DTP/NCI, 2004).
Where “and” joins values, the source holds several entries; their conditions need not be identical. Equal entries are not always repeated. Toxic doses and inconclusive results are not listed. How the source made its calls: active means survival T/C of 150% or more; inactive means T/C below 125% in these data.

System: CD2F1 mice, L1210 leukemia ip, survival T/C
Test: NCI In Vivo Anticancer Drug Screen. Data for tumor model L1210 Leukemia (intraperitoneal) in CD2F1 (CDF1) mice
Conditions: higher = longer survival
How it was run: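 Implant tumor; dose compound or vehicle; measure endpoint in both groups; report treated divided by control.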

[1] = endpoint: mean survival time, dose: 100.0 mg/kg/injection, schedule: Q01DX001 (ip), vehicle: saline
[2] = endpoint: mean survival time, dose: 200.0 mg/kg/injection, schedule: Q01DX001 (ip), vehicle: saline
[3] = endpoint: mean survival time, dose: 400.0 mg/kg/injection, schedule: Q01DX001 (ip), vehicle: saline
[4] = endpoint: mean survival time, dose: 50.0 mg/kg/injection, schedule: Q01DX009 (ip), vehicle: saline with Tween-80
[5] = endpoint: mean survival time, dose: 50.0 mg/kg/injection, schedule: Q04DX003 (ip), vehicle: saline with Tween-80
[6] = endpoint: mean survival time, dose: 100.0 mg/kg/injection, schedule: Q01DX001 (ip), vehicle: saline with Tween-80
[7] = endpoint: mean survival time, dose: 100.0 mg/kg/injection, schedule: Q01DX009 (ip), vehicle: saline with Tween-80
[8] = endpoint: mean survival time, dose: 100.0 mg/kg/injection, schedule: Q04DX003 (ip), vehicle: saline with Tween-80
[9] = endpoint: mean survival time, dose: 200.0 mg/kg/injection, schedule: Q01DX001 (ip), vehicle: saline with Tween-80
[10] = endpoint: mean survival time, dose: 200.0 mg/kg/injection, schedule: Q01DX009 (ip), vehicle: saline with Tween-80
[11] = endpoint: mean survival time, dose: 400.0 mg/kg/injection, schedule: Q01DX009 (ip), vehicle: saline with Tween-80
[12] = endpoint: mean survival time, dose: 200.0 mg/kg/injection, schedule: Q04DX003 (ip), vehicle: saline with Tween-80
[13] = endpoint: mean survival time, dose: 400.0 mg/kg/injection, schedule: Q01DX001 (ip), vehicle: saline with Tween-80
[14] = endpoint: mean survival time, dose: 400.0 mg/kg/injection, schedule: Q04DX003 (ip), vehicle: saline with Tween-80
[15] = endpoint: mean survival time, dose: 100.0 mg/kg/injection, schedule: Q04DX003 (ip), vehicle: saline
[16] = endpoint: mean survival time, dose: 200.0 mg/kg/injection, schedule: Q04DX003 (ip), vehicle: saline
[17] = endpoint: mean survival time, dose: 12.5 mg/kg/injection, schedule: Q01DX009 (ip), vehicle: saline with Tween-80

Measured: T/C

CCOC(=O)C(CC)(OC(C)=O)C(=O)C=O (centres undefined)
inactive: [1] 108 % of control | [2] 112 % of control | [3] 116 % of control

N#CC(c1ccccn1)N1CCOCC1 (centres undefined)
inactive: endpoint: mean survival time, dose: 12.5 mg/kg/injection, schedule: Q04DX002 (ip), vehicle: saline with Tween-80 97 % of control and 100 % of control | endpoint: mean survival time, dose: 25.0 mg/kg/injection, schedule: Q04DX003 (ip), vehicle: saline with Tween-80 104 % of control | endpoint: mean survival time, dose: 50.0 mg/kg/injection, schedule: Q01DX001 (ip), vehicle: saline with Tween-80 100 % of control | [4] 89 % of control and 103 % of control | [5] 109 % of control | [6] 94 % of control | [7] 89 % of control and 95 % of control | [8] 107 % of control | [9] 100 % of control | endpoint: mean survival time, dose: 200.0 mg/kg/injection, schedule: Q04DX002 (ip), vehicle: saline with Tween-80 98 % of control

CS(=O)(=O)C(Br)(Br)S(C)(=O)=O
inactive: endpoint: mean survival time, dose: 4.7 mg/kg/injection, schedule: Q01DX001 (ip), vehicle: saline with Tween-80 103 % of control | endpoint: mean survival time, dose: 9.4 mg/kg/injection, schedule: Q01DX001 (ip), vehicle: saline with Tween-80 100 % of control

CC1(C(=O)O)C2C3C=CC(C3)C21 (centres undefined)
inactive: [7] 100 % of control | [10] 97 % of control | [11] 103 % of control

O=C(O)C(Cl)(c1ccccc1)C(Cl)c1ccccc1 (centres undefined)
inactive: [4] 94 % of control | [7] 100 % of control | [8] 101 % of control | [10] 98 % of control | [12] 101 % of control

Cc1ccc(C(OS(=O)(=O)c2ccc(C)cc2)C(F)(F)F)cc1 (centres undefined)
inactive: [6] 104 % of control | [8] 107 % of control | [9] 108 % of control | [12] 101 % of control | [13] 106 % of control | [14] 98 % of control

CC(=O)Nc1c(N)nc(Nc2nc3ccccc3[nH]2)[nH]c1=O
inactive: [7] 93 % of control | [8] 97 % of control | [10] 95 % of control | [12] 96 % of control | [11] 93 % of control | [14] 87 % of control

CS(=O)(=O)N1C(=O)c2ccccc2C1=O
inactive: endpoint: mean survival time, dose: 25.0 mg/kg/injection, schedule: Q04DX002 (ip), vehicle: saline with Tween-80 101 % of control | endpoint: mean survival time, dose: 50.0 mg/kg/injection, schedule: Q04DX002 (ip), vehicle: saline with Tween-80 98 % of control | endpoint: mean survival time, dose: 100.0 mg/kg/injection, schedule: Q04DX002 (ip), vehicle: saline with Tween-80 93 % of control

CCC(C)C(=O)CN(C)C (centres undefined)
inactive: [15] 100 % of control | [16] 96 % of control

OC1(C#CCC2(O)CCCCC2)CCCCC1
inactive: [6] 91 % of control | [9] 91 % of control | [13] 93 % of control

CCCCNC(=O)C1CC2c3c(Br)ccc4c3C(CC2N(C)C1)CN4C(C)=O (centres undefined)
inactive: [5] 86 % of control | [12] 91 % of control

CCOC(=O)NCCBr
inactive: endpoint: mean survival time, dose: 37.5 mg/kg/injection, schedule: Q01DX007 (ip), vehicle: saline 88 % of control | endpoint: mean survival time, dose: 75.0 mg/kg/injection, schedule: Q01DX007 (ip), vehicle: saline 97 % of control | endpoint: mean survival time, dose: 150.0 mg/kg/injection, schedule: Q01DX007 (ip), vehicle: saline 92 % of control

Cc1cccc(Cl)c1NC(=O)C(C)C
inactive: endpoint: mean survival time, dose: 100.0 mg/kg/injection, schedule: Q04DX003 (ip), vehicle: other 94 % of control | endpoint: mean survival time, dose: 200.0 mg/kg/injection, schedule: Q04DX003 (ip), vehicle: other 91 % of control | endpoint: mean survival time, dose: 400.0 mg/kg/injection, schedule: Q04DX003 (ip), vehicle: other 87 % of control

CCOC(=O)/C=C/C(=O)O.[Cu+2]
inactive: endpoint: mean survival time, dose: 1.56 mg/kg/injection, schedule: Q04DX003 (ip), vehicle: saline 108 % of control | endpoint: mean survival time, dose: 3.12 mg/kg/injection, schedule: Q04DX003 (ip), vehicle: saline 108 % of control | endpoint: mean survival time, dose: 6.25 mg/kg/injection, schedule: Q04DX003 (ip), vehicle: saline 104 % of control

Cc1ccc2c(c1)-c1[nH]c3ccccc3c1CS2
inactive: endpoint: mean survival time, dose: 50.0 mg/kg/injection, schedule: Q01DX009 (ip), vehicle: Klucel (hydroxypropylcellulose) (HPC) 109 % of control | endpoint: mean survival time, dose: 100.0 mg/kg/injection, schedule: Q01DX009 (ip), vehicle: Klucel (hydroxypropylcellulose) (HPC) 107 % of control | endpoint: mean survival time, dose: 200.0 mg/kg/injection, schedule: Q01DX009 (ip), vehicle: Klucel (hydroxypropylcellulose) (HPC) 107 % of control

CC(NC(=O)c1cccnc1)C(=O)O (centres undefined)
inactive: endpoint: median survival time, dose: 25.0 mg/kg/injection, schedule: Q04DX003 (ip), vehicle: saline 105 % of control | endpoint: median survival time, dose: 50.0 mg/kg/injection, schedule: Q04DX003 (ip), vehicle: saline 115 % of control | endpoint: median survival time, dose: 100.0 mg/kg/injection, schedule: Q04DX003 (ip), vehicle: saline 94 % of control | endpoint: median survival time, dose: 200.0 mg/kg/injection, schedule: Q04DX003 (ip), vehicle: saline 94 % of control

O=S(=O)(O)c1ccc(-c2nnc(-c3ccccn3)nc2-c2ccc(S(=O)(=O)O)cc2)cc1
inactive: endpoint: mean survival time, dose: 100.0 mg/kg/injection, schedule: Q01DX009 (ip), vehicle: saline sonified 96 % of control | [15] 97 % of control | endpoint: mean survival time, dose: 200.0 mg/kg/injection, schedule: Q01DX009 (ip), vehicle: saline sonified 98 % of control | [16] 97 % of control | endpoint: mean survival time, dose: 400.0 mg/kg/injection, schedule: Q01DX009 (ip), vehicle: saline sonified 94 % of control | endpoint: mean survival time, dose: 400.0 mg/kg/injection, schedule: Q04DX003 (ip), vehicle: saline 92 % of control

C=CCNc1nc2c(s1)CCc1cc(OC)c(OC)cc1-2
inactive: [17] 92 % of control and 97 % of control | endpoint: mean survival time, dose: 25.0 mg/kg/injection, schedule: Q01DX009 (ip), vehicle: saline with Tween-80 95 % of control and 101 % of control | [4] 97 % of control and 98 % of control | [7] 97 % of control and 101 % of control | [10] 97 % of control and 101 % of control | [11] 106 % of control

CCOC1CC(C)C=CO1 (centres undefined)
inactive: endpoint: mean survival time, dose: 100.0 mg/kg/injection, schedule: Q01DX001 (ip), vehicle: saline + alcohol 108 % of control | endpoint: mean survival time, dose: 200.0 mg/kg/injection, schedule: Q01DX001 (ip), vehicle: saline + alcohol 104 % of control | endpoint: mean survival time, dose: 400.0 mg/kg/injection, schedule: Q01DX001 (ip), vehicle: saline + alcohol 96 % of control

CC(SCc1ccccc1)C(NC(=O)c1ccccc1)C(=O)O (centres undefined)
inactive: [7] 93 % of control | [8] 98 % of control | [10] 90 % of control | [12] 98 % of control | [11] 93 % of control | [14] 101 % of control

CCCCCCCCC(C(=O)c1ccccc1)C(O)(C(F)(F)F)C(F)(F)F (centres undefined)
inactive: [8] 102 % of control | [12] 111 % of control | [14] 102 % of control

O=c1[nH]cccc1[N+](=O)[O-]
inactive: [8] 106 % of control | [12] 106 % of control | [14] 101 % of control

CN(C)CC[CH2][Sn]([CH3])([CH3])[CH3]
inactive: endpoint: mean survival time, dose: 3.12 mg/kg/injection, schedule: Q01DX009 (ip), vehicle: saline with Tween-80 104 % of control | endpoint: mean survival time, dose: 6.25 mg/kg/injection, schedule: Q01DX009 (ip), vehicle: saline with Tween-80 100 % of control | [17] 90 % of control

CC(=O)OC1CCC2(C)C(CCC3C2CCC2(C)C(C(C)=O)CCC32)C1 (centres undefined)
inactive: endpoint: mean survival time, dose: 100.0 mg/kg/injection, schedule: Q04DX003 (sc), vehicle: steriod suspending solution 103 % of control | endpoint: mean survival time, dose: 200.0 mg/kg/injection, schedule: Q04DX003 (sc), vehicle: steriod suspending solution 97 % of control | endpoint: mean survival time, dose: 400.0 mg/kg/injection, schedule: Q04DX003 (sc), vehicle: steriod suspending solution 107 % of control

CN(C)c1ccc(C(=O)OOOOC(c2ccc(N(C)C)cc2)(c2ccc(N(C)C)cc2)c2ccc(N(C)C)cc2)cc1
inactive: endpoint: mean survival time, dose: 50.0 mg/kg/injection, schedule: Q01DX001 (ip), vehicle: saline 95 % of control | [1] 95 % of control | [2] 107 % of control | [3] 89 % of control

CN(C)C(C)(C)CC(C)(C)C
inactive: [8] 96 % of control
